One assay relates to Jurkat cells. Briefly: IL-2 secretion assay in CD3/CD28-activated Jurkat cells (AlphaLISA). Conditions: Homo sapiens, CD3/CD28 activation, 24 h. Format: cell-based, human. As for the experimental part:
Certain compounds were also evaluated in an IL-2 secretion assay. On the day of the assay, a 16 point, 1:2 master serial dilution of each compound was prepared in Opti-MEM to span a final concentration range of […]. Assays were set up in CORNING® tissue culture-treated 384-well microplates containing 60 nL of each dilution. Jurkat cells grown in RPMI-1640 supplemented with 10% FBS, 1% Glutamax, and 1% Pen/Strep were collected, resuspended in Opti-MEM. 50,000 cells/well and added to the compound plates. After a short spin (1200 rpm for 1 min), the plates were incubated at 37° C. for 1 hour. The cells were activated by adding 15 μL of IMMUNOCULT™ Human CD3/CD28 T Cell Activator (STEMCELL Technologies) diluted in Opti-MEM. After 24 h of incubation at 37° C., aliquots of culture supernatants were transferred to OptiPlate-384 (PerkinElmer) microplates. The level of JIL-2 secretion in the supernatants was then determined using the IL-2 (human) AiphaLISA Detection Kit (PerkinElmer) according to the manufacturer's recommendations. The AiphaLISA signal was measured using an EnVision plate reader (PerkinElmer). EC50 values were determined by fitting the data to a standard 4-parameter logistic equation. See Table 3 for data for select compounds (IL-2 Secretion (EC50)).
For orientation: Alpha assays give light when donor and acceptor beads are brought close together.

A further assay concerns the target Cbl-b (Homo sapiens (Human), UniProt Q13191). Description: Cbl-b probe displacement HTRF binding assay. Conditions: 0.4 nM biotinylated Cbl-b, 150 nM BODIPY probe. As for the experimental part:
The affinity with which compounds of the present disclosure bind to Cbl-b was assessed using probe displacement homologous time resolved fluorescence (HTRF) assays. The assays used a BODIPY™ conjugated probe (Example 54 from WO 2020264398) and biotinylated Cbl-b. The assays were performed in assay buffer consisting of 20 mM Hepes, 150 mM NaCl, 0.01% Triton X-100, 0.5 mM TCEP, 0.01% BSA. On the day of the assay, a 20 point, 1:2 master serial dilution of each compound was prepared in DMSO to span a final concentration range of 10 μM to 0 nM. Two hundred nanoliters of diluted compound was added to each well of a 384-well plate. Fifteen microliters of biotinylated-Cbl-b resuspended in assay buffer were added to each well and the plate incubated for 60 minutes at room temperature prior to addition of 5 μL of BODIPY™ probe in assay buffer. Final assay conditions included 0.4 nM of Cbl-b and 150 nM of BODIPY™ probe. After a further 15 minutes of incubation at room temperature, 5 μl of Streptavidin-Terbium cryptate reagent at 5-fold final concentration was added to each well of the 384-well plate. Binding of a probe to Cbl-b results in an increase of HTRF signal. HTRF signal was measured by Envision plate reader, while competition of a compound of the present disclosure with probe results in a decrease of signal. Percentage maximum activity in each test well was calculated based on DMSO (maximum activity, 0% displacement) and no protein control wells (baseline activity, 100% displacement). Binding affinity was determined from a dose response curve fitted using a standard four parameter fit equation. See Table 3 for data for compounds (Cbl-b Binding (IC50)).
Background: Time-resolved FRET reads energy transfer from a long-lived donor to a nearby acceptor.

Consider 17 compounds from patent US20240425497A1, “Cbl-b Inhibitors and Methods of Use Thereof” (ARCUS BIOSCIENCES, INC., priority 2023, published 2024).

Sequence of Cbl-b (Q13191 whole entry, species assumed): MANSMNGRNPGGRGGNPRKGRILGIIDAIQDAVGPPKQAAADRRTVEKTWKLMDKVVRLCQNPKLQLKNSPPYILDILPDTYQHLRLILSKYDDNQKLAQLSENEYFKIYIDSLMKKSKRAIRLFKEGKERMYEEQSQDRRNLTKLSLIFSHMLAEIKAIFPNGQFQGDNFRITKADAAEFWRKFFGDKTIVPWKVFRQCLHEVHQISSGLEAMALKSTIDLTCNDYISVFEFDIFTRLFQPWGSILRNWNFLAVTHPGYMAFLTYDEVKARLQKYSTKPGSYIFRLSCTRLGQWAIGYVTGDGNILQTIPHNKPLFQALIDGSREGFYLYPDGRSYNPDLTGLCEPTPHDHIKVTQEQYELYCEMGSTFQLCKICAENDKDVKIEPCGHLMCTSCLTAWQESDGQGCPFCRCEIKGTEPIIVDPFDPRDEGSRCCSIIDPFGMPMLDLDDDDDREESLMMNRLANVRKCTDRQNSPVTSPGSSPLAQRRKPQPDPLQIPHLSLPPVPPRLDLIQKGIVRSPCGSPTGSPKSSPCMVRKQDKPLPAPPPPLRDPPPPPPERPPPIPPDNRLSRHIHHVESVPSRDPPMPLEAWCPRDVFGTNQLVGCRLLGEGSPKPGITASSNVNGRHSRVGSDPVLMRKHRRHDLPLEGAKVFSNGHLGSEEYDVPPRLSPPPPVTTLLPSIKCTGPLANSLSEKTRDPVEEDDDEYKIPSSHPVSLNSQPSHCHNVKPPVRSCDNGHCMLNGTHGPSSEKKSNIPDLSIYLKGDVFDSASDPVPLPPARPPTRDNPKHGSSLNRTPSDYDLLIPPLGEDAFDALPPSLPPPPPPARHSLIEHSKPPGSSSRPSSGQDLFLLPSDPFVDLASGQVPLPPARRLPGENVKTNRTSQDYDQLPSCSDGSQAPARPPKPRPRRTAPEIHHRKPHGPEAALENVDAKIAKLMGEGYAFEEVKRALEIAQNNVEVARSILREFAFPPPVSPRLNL

`C[C@H]1CCCN(Cc2cc3c(C4CC4)cn(-c4cc(-c5ccc(F)cc5C(=O)N5CC(F)(F)C5)cc(C5CC5)n4)c(=O)c3[nH]2)C1` [Example 14, 2-{[(S)-3-methyl-1-piperidyl]methyl}-4-cyclopropyl-6-(6-cyclopropyl-4-{2-[(3,3-difluoro-1-azetidinyl)carbonyl]-4-fluorophenyl}-2-pyridyl)-1,6-dihydro-1,6-diaza-7-indenone]: in the assay with Jurkat cells, the EC50 – broadly, the concentration needed to bring the measured effect to its halfway point – is under 100 nM. Moreover, at Cbl-b, the 50% inhibitory concentration (IC50) (as a rule, the concentration needed to halve the response being measured) is under 100 nM.

In the assay with Jurkat cells, `CC1CCN1C(=O)c1cc(F)ccc1-c1cc(C2CC2)nc(-n2cc(C3CC3)c3cc(CN4CCC[C@H](C)C4)[nH]c3c2=O)c1` (stereo partly drawn) [Example 15, 2-{[(S)-3-methyl-1-piperidyl]methyl}-4-cyclopropyl-6-(6-cyclopropyl-4-{4-fluoro-2-[(2-methyl-1-azetidinyl)carbonyl]phenyl}-2-pyridyl)-1,6-dihydro-1,6-diaza-7-indenone] yielded an EC50 of 100 to 1000 nM. Also, the IC50 on Cbl-b is under 100 nM.

`C[C@H]1CCCN(Cc2cc3c(C4CC4)cn(-c4cc(-c5ccc(F)cc5C(=O)N5CC(C#N)C5)cc(C5CC5)n4)c(=O)c3[nH]2)C1` [Example 16, 1-{2-[2-(2-{[(S)-3-methyl-1-piperidyl]methyl}-4-cyclopropyl-7-oxo-1,6-dihydro-1,6-diaza-6-indenyl)-6-cyclopropyl-4-pyridyl]-5-fluorobenzoyl}-3-azetidinecarbonitrile] registered an EC50 with Jurkat cells of under 100 nM. Besides, the IC50 at Cbl-b is under 100 nM.

Compound `O=C(c1cc(F)ccc1-c1cc(C2CC2)nc(-n2cc(C3CC3)c3cc(CN[C@H]4CCC[C@H]4O)[nH]c3c2=O)c1)N1CC(F)C1` [Example 17, 2-{[(1S,2R)-2-hydroxycyclopentylamino]methyl}-4-cyclopropyl-6-(6-cyclopropyl-4-{4-fluoro-2-[(3-fluoro-1-azetidinyl)carbonyl]phenyl}-2-pyridyl)-1,6-dihydro-1,6-diaza-7-indenone] came in with an EC50 in the assay on Jurkat cells of under 100 nM. On Cbl-b, this compound displayed an IC50 of under 100 nM.

For `C[C@H]1CCCN(Cc2cc3c(C4CC4)cn(-c4cc(-c5ccc(F)cc5C(N)=O)cc(C5CC5)n4)c(=O)c3[nH]2)C1` [Example 18, 2-[2-(2-{[(S)-3-methyl-1-piperidyl]methyl}-4-cyclopropyl-7-oxo-1,6-dihydro-1,6-diaza-6-indenyl)-6-cyclopropyl-4-pyridyl]-5-fluorobenzamide], the EC50 with Jurkat cells fell in the range of 100 to 1000 nM. Moreover, on Cbl-b, the IC50 lay within 100 to 1000 nM.

Consider `C[C@H]1CCCN(Cc2cc3c(C#N)cn(-c4cc(-c5ccc(F)c(F)c5C(=O)N(C)C)cc(C5CC5)n4)c(=O)c3[nH]2)C1` [Example 19, N,N-dimethyl6-[2-(2-{[(S)-3-methyl-1-piperidyl]methyl}-4-cyano-7-oxo-1,6-dihydro-1,6-diaza-6-indenyl)-6-cyclopropyl-4-pyridyl]-2,3-difluorobenzamide], for which the EC50 in the assay on Jurkat cells was 100 to 1000 nM. In addition, the IC50 at Cbl-b is under 100 nM.

The compound `C[C@H]1CCCN(Cc2cc3c(C#N)cn(-c4cc(-c5cccnc5C(=O)N(C)C)cc(C5CC5)n4)c(=O)c3[nH]2)C1` [Example 20, N,N-dimethyl-2′-(2-{[(S)-3-methyl-1-piperidyl]methyl}-4-cyano-7-oxo-1,6-dihydro-1,6-diaza-6-indenyl)-6′-cyclopropyl-[3,4′-bipyridyl]-2-carboxamide] registered an EC50 in the assay with Jurkat cells of 1000 to 5000 nM. For the same compound, the IC50 on Cbl-b was 100 to 1000 nM.

As for `C[C@H]1CCCN(Cc2cc3c(C#N)cn(-c4cc(-c5ccc(F)cc5C(=O)N5CC(F)C5)cc(C5CC5)n4)c(=O)c3[nH]2)C1` [Example 21, 2-{[(S)-3-methyl-1-piperidyl]methyl}-6-(6-cyclopropyl-4-{4-fluoro-2-[(3-fluoro-1-azetidinyl)carbonyl]phenyl}-2-pyridyl)-7-oxo-1,6-dihydro-1,6-diaza-4-indenecarbonitrile], the EC50 in the assay on Jurkat cells is under 100 nM. For the same compound, at Cbl-b, the IC50 is under 100 nM.

Compound `C[C@H]1CCCN(Cc2cc3c(C#N)cn(-c4cc(C#N)cc(-c5ccc(F)cc5C(=O)N5CC(F)C5)c4)c(=O)c3[nH]2)C1` [Example 22, 2-{[(S)-3-methyl-1-piperidyl]methyl}-6-{5-cyano-4′-fluoro-2′-[(3-fluoro-1-azetidinyl)carbonyl]-3-biphenylyl}-7-oxo-1,6-dihydro-1,6-diaza-4-indenecarbonitrile] gave an EC50 in the assay on Jurkat cells of 100 to 1000 nM. This compound also showed an IC50 on Cbl-b of under 100 nM.

On to `C[C@H]1CCCN(Cc2cc3c(C#N)cn(-c4cc(-c5ccc(F)cc5C(=O)N5CC(F)C5)cc(C(F)(F)F)c4)c(=O)c3[nH]2)C1` [Example 23, 2-{[(S)-3-methyl-1-piperidyl]methyl}-6-{4′-fluoro-2′-[(3-fluoro-1-azetidinyl)carbonyl]-5-(trifluoromethyl)-3-biphenylyl}-7-oxo-1,6-dihydro-1,6-diaza-4-indenecarbonitrile], for which, in the assay on Jurkat cells, the EC50 was 1000 to 5000 nM. The compound further gave an IC50 on Cbl-b of 100 to 1000 nM.

`C[C@H]1CCCN(Cc2cc3c(C#N)cn(-c4cncc(-c5ccc(F)cc5C(=O)N5CC(F)C5)c4)c(=O)c3[nH]2)C1` [Example 24, 2-{[(S)-3-methyl-1-piperidyl]methyl}-6-(5-{4-fluoro-2-[(3-fluoro-1-azetidinyl)carbonyl]phenyl}-3-pyridyl)-7-oxo-1,6-dihydro-1,6-diaza-4-indenecarbonitrile] had an EC50 in the assay with Jurkat cells of 100 to 1000 nM. Moreover, on Cbl-b, the IC50 was in the range of 100 to 1000 nM.

With `C[C@H]1CCCN(Cc2cc3ncn(-c4cc(-c5ccc(F)cc5C(=O)N5CC(F)C5)cc(C5CC5)n4)c(=O)c3[nH]2)C1` [Example 25, 2-{[(S)-3-methyl-1-piperidyl]methyl}-6-(6-cyclopropyl-4-{4-fluoro-2-[(3-fluoro-1-azetidinyl)carbonyl]phenyl}-2-pyridyl)-1,6-dihydro-1,4,6-triaza-7-indenone], in the assay on Jurkat cells, the EC50 is under 100 nM. For the same compound, on Cbl-b, the half-maximal inhibitory concentration (IC50) was under 100 nM.

As for `C[C@@H]1CN(Cc2cc3ncn(-c4cc(-c5ccc(F)cc5C(=O)N5CC(F)C5)cc(C5CC5)n4)c(=O)c3[nH]2)CCO1` [Example 26, 3-[6-cyclopropyl-4-[4-fluoro-2-(3-fluoroazetidine-1-carbonyl)phenyl]pyridin-2-yl]-6-[[(2R)-2-methylmorpholin-4-yl]methyl]-5H-pyrrolo[3,2-d]pyrimidin-4-one], the EC50 with Jurkat cells is under 100 nM. The IC50 on Cbl-b was under 100 nM.

The compound `CC(O)c1cc2ncn(-c3cc(-c4ccc(F)cc4C(=O)N4CC(F)C4)cc(C4CC4)n3)c(=O)c2[nH]1` (stereo not shown) [Example 27, 6-(6-cyclopropyl-4-{4-fluoro-2-[(3-fluoro-1-azetidinyl)carbonyl]phenyl}-2-pyridyl)-2-(1-hydroxyethyl)-1,6-dihydro-1,4,6-triaza-7-indenone] came in with an EC50 in the assay on Jurkat cells of 1000 to 5000 nM. This compound registered an IC50 at Cbl-b of 100 to 1000 nM.

In turn, `C[C@H]1CCCN(Cc2ccc3c(c2)C(=O)N(c2cc(-c4ccc(F)cc4C(=O)N4CC(F)C4)cc(C4CC4)n2)C3)C1` [Example 28, 6-{[(S)-3-methyl-1-piperidyl]methyl}-2-(6-cyclopropyl-4-{4-fluoro-2-[(3-fluoro-1-azetidinyl)carbonyl]phenyl}-2-pyridyl)-1-isoindolinone] gave an EC50 with Jurkat cells of 100 to 1000 nM. The same compound yielded an IC50 at Cbl-b of under 100 nM.

Take `C[C@H]1CCCN(Cc2nc3c(C4CC4)cn(-c4cc(-c5ccc(F)cc5C(=O)N5CC(F)C5)cc(C5CC5)c4)c(=O)c3[nH]2)C1` [Example 29, 7-cyclopropyl-5-[3-cyclopropyl-5-[4-fluoro-2-(3-fluoroazetidine-1-carbonyl)phenyl]phenyl]-2-[[(3S)-3-methylpiperidin-1-yl]methyl]-3H-imidazo[4,5-c]pyridin-4-one]: the EC50 with Jurkat cells is under 100 nM. Moreover, the half-inhibitory concentration (IC50) at Cbl-b was under 100 nM.

The compound `C[C@H]1CCCN(Cc2cc3c(C4CC4)cn(-c4cc(-c5ccc(F)cc5C(=O)N5CC(F)C5)nc(C5CC5)n4)c(=O)c3[nH]2)C1` [Example 30, 4-cyclopropyl-6-[2-cyclopropyl-6-[4-fluoro-2-(3-fluoroazetidine-1-carbonyl)phenyl]pyrimidin-4-yl]-2-[[(3S)-3-methylpiperidin-1-yl]methyl]—1H-pyrrolo[2,3-c]pyridin-7-one] came in with an EC50 in the assay with Jurkat cells of under 100 nM. Also, the IC50 at Cbl-b was under 100 nM.
